Data taken from ChEMBL document CHEMBL1201862, “PubChem BioAssay data set” (2004).
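Protocol summary: plate cells (96-well), add compound at 5 concentrations, incubate 48 h, interpolate endpoints linearly. Here, GI50 denotes the concentration required for 50% inhibition of growth.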 Activity calls are given as the source filed them. Cut-off read from the data, not from the text of the source: active = GI50 up to about 1.1 µM and inactive = higher.

Key:
Test in all cases: NCI-60 cell line screen, 48 h
DLD-1 = system: DLD-1
DMS-114 = system: DMS-114
HOP-18 = system: HOP-18
KM-20L2 = system: KM-20L2
M19-MEL = system: M19-MEL
SNB-78 = system: SNB-78
LXFL 529 = system: LXFL 529
XF498 = system: XF498
RXF 631 = system: RXF 631

SMILES | GI50 (DLD-1) | GI50 (DMS-114) | GI50 (HOP-18) | GI50 (KM-20L2) | GI50 (M19-MEL) | GI50 (SNB-78) | GI50 (LXFL 529) | GI50 (XF498) | GI50 (RXF 631)
CC(C)(C)N1CC2(CCCCC2)C1=O | > 100 µM (inactive) | > 100 µM (inactive) | > 100 µM (inactive) | > 100 µM (inactive) | > 100 µM (inactive) | > 100 µM (inactive) | – | – | –
O=C1C=CC(=O)c2c1c1c(c3c2C2c4ccccc4C3c3ccccc32)C2c3ccccc3C1c1ccccc12 | 0.982 µM (active) | 1.95 µM (inactive) | – | 4.46 µM (inactive) | 1.98 µM (inactive) | 1.81 µM (inactive) | 1.08 µM (active) | 1.75 µM (inactive) | –
CN1CCN2c3ccccc3CC(C#N)(C#N)C2C1 (stereo not given) | > 100 µM (inactive) | > 100 µM (inactive) | > 100 µM (inactive) | > 100 µM (inactive) | > 100 µM (inactive) | > 100 µM (inactive) | > 100 µM (inactive) | – | > 100 µM (inactive)
CC(=O)OC1CCn2nnc(COC(=O)NC(C)C)c21 (stereo not given) | > 100 µM (inactive) | > 100 µM (inactive) | > 100 µM (inactive) | > 100 µM (inactive) | – | > 100 µM (inactive) | > 100 µM (inactive) | > 100 µM (inactive) | > 100 µM (inactive)
C[C@H](C(=O)C12CC3CC(CC(C3)C1)C2)[C@H](O)c1ccccc1 | 45.5 µM (inactive) | – | 98.9 µM (inactive) | 20.8 µM (inactive) | – | 31.6 µM (inactive) | 43.8 µM (inactive) | 26 µM (inactive) | 31.2 µM (inactive)
CC[P+](C)(C)CC | > 100 µM (inactive) | > 100 µM (inactive) | > 100 µM (inactive) | > 100 µM (inactive) | > 100 µM (inactive) | > 100 µM (inactive) | > 100 µM (inactive) | – | > 100 µM (inactive)
O=C(O)COc1ccc2c3c1C(=O)CCC3CO2 (stereo not given) | > 100 µM (inactive) | > 100 µM (inactive) | > 100 µM (inactive) | > 100 µM (inactive) | > 100 µM (inactive) | > 100 µM (inactive) | > 100 µM (inactive) | > 100 µM (inactive) | –
O=C(/C=C\c1ccc(Cl)c(Cl)c1)c1ccc(Cl)cc1Cl | 5.41 µM (inactive) | > 10 µM (inactive) | > 10 µM (inactive) | 2.69 µM (inactive) | 18.7 µM (inactive) | > 10 µM (inactive) | 2.26 µM (inactive) | – | 35.9 µM (inactive)
CN(C)CCC(=O)N1CCc2c([nH]c3ccccc23)C1c1cccnc1 (stereo not given) | > 100 µM (inactive) | > 100 µM (inactive) | > 100 µM (inactive) | > 100 µM (inactive) | > 100 µM (inactive) | > 100 µM (inactive) | 34.9 µM (inactive) | > 100 µM (inactive) | > 100 µM (inactive)
CC(C)=C1CCC(CN2CCCC2)C1=O (stereo not given) | 17.3 µM (inactive) | 20.4 µM (inactive) | 17.5 µM (inactive) | 89.7 µM (inactive) | 20.6 µM (inactive) | > 100 µM (inactive) | 18 µM (inactive) | 19.1 µM (inactive) | > 100 µM (inactive)
Cc1cn(C2CC(O)C(CO)O2)c(=O)n2nnnc12 (stereo not given) | > 100 µM (inactive) | > 100 µM (inactive) | > 100 µM (inactive) | – | > 100 µM (inactive) | > 100 µM (inactive) | > 100 µM (inactive) | – | > 100 µM (inactive)
COC(=O)c1ccc(NCc2cc(O)ccc2O)cc1 | 18.1 µM (inactive) | 3.52 µM (inactive) | 14.2 µM (inactive) | 28.4 µM (inactive) | 16.7 µM (inactive) | 15.2 µM (inactive) | 5.06 µM (inactive) | 2.96 µM (inactive) | –
C=C1CC2OC2(C(=O)O[C@H]2CCC3[C@@H]4CCC5=CC(=O)CC[C@]5(C)C4CC[C@@]32C)C1=O (stereo not given in full) | 2.64 µM (inactive) | 5.2 µM (inactive) | 5.83 µM (inactive) | 7.57 µM (inactive) | 7.57 µM (inactive) | 8.26 µM (inactive) | 2.18 µM (inactive) | 5.19 µM (inactive) | –
Cc1c(Cl)cccc1NC(=O)c1cccc([N+](=O)[O-])c1O | 21.4 µM (inactive) | 11.5 µM (inactive) | 2.7 µM (inactive) | 13.1 µM (inactive) | 13.8 µM (inactive) | 34.1 µM (inactive) | 11.3 µM (inactive) | 16.3 µM (inactive) | 13.8 µM (inactive)
CC(=O)O[C@H]1CC[C@@]2(C)C(CC[C@]3(C)C2CC[C@]2(C)Oc4c(C)cc(O)cc4C[C@@H]23)C1(C)C (stereo not given in full) | 10.4 µM (inactive) | 7.1 µM (inactive) | 13.5 µM (inactive) | 5.5 µM (inactive) | 11.9 µM (inactive) | 7.52 µM (inactive) | 3.65 µM (inactive) | – | 5.16 µM (inactive)
O=C1Nc2ccccc2C12CCCC2 | > 100 µM (inactive) | > 100 µM (inactive) | > 100 µM (inactive) | > 100 µM (inactive) | > 100 µM (inactive) | > 100 µM (inactive) | > 100 µM (inactive) | > 100 µM (inactive) | –
Nc1nc(CCC(=O)Nc2cccc(C(F)(F)F)c2)cc(-c2cccc3ccccc23)n1 | > 100 µM (inactive) | > 100 µM (inactive) | > 100 µM (inactive) | > 100 µM (inactive) | > 100 µM (inactive) | > 100 µM (inactive) | > 100 µM (inactive) | > 100 µM (inactive) | > 100 µM (inactive)
CCOC(=O)C(=O)Nc1ccccc1C(F)(F)F | > 100 µM (inactive) | – | 0.9 µM (active) | > 100 µM (inactive) | – | > 100 µM (inactive) | > 100 µM (inactive) | > 100 µM (inactive) | –
C=C1C(=O)O[C@H](c2ccoc2)C[C@@H]1[C@@]1(C)CCCC2(C)C(=O)OCC21 (stereo not given in full) | – | > 100 µM (inactive) | – | > 100 µM (inactive) | > 100 µM (inactive) | > 100 µM (inactive) | > 100 µM (inactive) | > 100 µM (inactive) | –
COc1ccc2nccc(C3OC(=O)N4CCC(=O)CC34)c2c1 (stereo not given) | – | – | – | > 100 µM (inactive) | > 100 µM (inactive) | > 100 µM (inactive) | > 100 µM (inactive) | > 100 µM (inactive) | > 100 µM (inactive)
Cc1cc([N+](=O)[O-])c(C)c2c1[nH]c1ccc(/C(CCC3CCCC3)=N\N)cc12 | – | 17.6 µM (inactive) | 11 µM (inactive) | – | 19 µM (inactive) | 36.5 µM (inactive) | – | 14.7 µM (inactive) | –
O=C1/C=C(/c2ccc(O)cc2)[C@@H](OC2OC(CO)C(O)C(O)C2O)Cc2ccc(O)cc2O1.O=C1/C=C(/c2ccc(O)cc2)[C@H](O)Cc2ccc(O[C@@H]3OC(CO)C(O)C(O)C3O)cc2O1 (stereo not given in full) | > 100 µM (inactive) | > 100 µM (inactive) | – | > 100 µM (inactive) | > 100 µM (inactive) | > 100 µM (inactive) | > 100 µM (inactive) | – | > 100 µM (inactive)
CCCC(=O)OC1C(C(O)CO)OC2OC(C)(C)OC21 (stereo not given) | > 100 µM (inactive) | > 100 µM (inactive) | > 100 µM (inactive) | > 100 µM (inactive) | > 100 µM (inactive) | > 100 µM (inactive) | – | > 100 µM (inactive) | –
CC1=C(C(=O)Nc2ccccc2C)C(/C=C/c2ccccc2)C(C(=O)Nc2ccccc2C)=C(C)N1 | > 100 µM (inactive) | – | > 100 µM (inactive) | > 100 µM (inactive) | > 100 µM (inactive) | > 100 µM (inactive) | > 100 µM (inactive) | > 100 µM (inactive) | > 100 µM (inactive)
O=C(O)/C(=C/c1ccccc1[N+](=O)[O-])c1cccs1 | > 100 µM (inactive) | – | > 100 µM (inactive) | > 100 µM (inactive) | > 100 µM (inactive) | > 100 µM (inactive) | > 100 µM (inactive) | > 100 µM (inactive) | > 100 µM (inactive)
C[C@H](NC(=O)n1c2ccccc2c2ccccc21)C(=O)O | > 100 µM (inactive) | > 100 µM (inactive) | > 100 µM (inactive) | > 100 µM (inactive) | > 100 µM (inactive) | – | > 100 µM (inactive) | – | > 100 µM (inactive)
